Calls of active or inactive are those of the source. The rule behind the calls is not given here.
How the values were obtained:
[1] = tested on: Plasmodium yoelii nigeriensis; assay: Antimalarial activity against Plasmodium yoelii nigeriensis infected Swiss mice (Mus musculus) at 48 mg/kg peroral dose over 4 days; format: functional; conditions: route oral
[2] = tested on: Plasmodium yoelii nigeriensis; assay: Antimalarial activity against Plasmodium yoelii nigeriensis infected Swiss mice (Mus musculus) at 96 mg/kg intramuscular dose over 4 days; format: functional
Mus musculus [3] = assay: Survival of Swiss mice (Mus musculus) infected with Plasmodium yoelii nigeriensis at 96 mg/kg, peroral after 28 days; format: functional, organism-based; parameters: dose 96 mg/kg
[4] = tested on: Plasmodium yoelii nigeriensis; assay: Antimalarial activity at day 4 against Plasmodium yoelii nigeriensis infected in Swiss mice (Mus musculus) at 96 mg/kg peroral dose; format: functional; conditions: route oral
[5] = Partition coefficient, log P of the compound; format: physicochemical; conditions: octanol/water
Mus musculus [6] = assay: Survival of Swiss mice (Mus musculus) infected with Plasmodium yoelii nigeriensis at 96 mg/kg, intramuscular after 28 days; format: functional, organism-based; parameters: dose 96 mg/kg
[7] = tested on: Plasmodium yoelii nigeriensis; assay: Antimalarial activity against Plasmodium yoelii nigeriensis infected Swiss mice (Mus musculus) at 24 mg/kg peroral dose over 4 days; format: functional; conditions: route oral
Mus musculus [8] = assay: Survival of Swiss mice (Mus musculus) infected with Plasmodium yoelii nigeriensis at 48 mg/kg, peroral after 28 days; format: functional, organism-based; parameters: dose 48 mg/kg
Plasmodium cynomolgi [9] = assay: Antimalarial activity against Plasmodium cynomolgi infected Rhesus monkey at 10 mg/kg intramuscular dose over 4 days; format: functional, organism-based; parameters: dose 10 mg/kg
Plasmodium cynomolgi [10] = assay: Antimalarial activity against Plasmodium cynomolgi infected Rhesus monkey at 10 mg/kg peroral dose over 4 days; format: functional; conditions: route oral
Plasmodium cynomolgi [11] = assay: Antimalarial activity against Plasmodium cynomolgi infected Rhesus monkey at 20 mg/kg peroral dose after 5 days; format: functional; conditions: route oral
Mus musculus [12] = assay: Survival of Swiss mice (Mus musculus) infected with Plasmodium yoelii nigeriensis at 24 mg/kg, peroral after 28 days; format: functional, organism-based; parameters: dose 24 mg/kg

Question: With `C=C(c1ccc2c(c1)CCCC2)C1COC2(OO1)C1CC3CC(C1)CC2C3` (stereo not drawn) as the compound, how does the Activity [1] read?
Answer: The Activity was 100%.

Question: And the Activity [2]?
Answer: Its Activity is 100%.

Question: What about the Activity (Mus musculus [3]) of the same compound?
Answer: The Activity was “Active”.

Question: What about the Activity [4] of the same compound?
Answer: The Activity was 100%.

Question: What about the logP [5] of the same compound?
Answer: The logP was 5.96.

Question: For `C=C(C1COC2(OO1)C1CC3CC(C1)CC2C3)C12CC3CC(CC(C3)C1)C2` (stereo not drawn), which Activity [2] is on record?
Answer: Its Activity is 14%.

Question: What about the Activity (Mus musculus [3]) of the same compound?
Answer: Its Activity is “inactive”.

Question: What about the Activity (Mus musculus [6]) of the same compound?
Answer: The Activity was “inactive”.

Question: And the Activity [4]?
Answer: The Activity was 70%.

Question: What about the logP [5] of the same compound?
Answer: Its logP is 5.43.

Question: Which Activity [1] does the source give for `C=C(c1ccc2ccc3ccccc3c2c1)C1COC2(OO1)C1CC3CC(C1)CC2C3` (stereo not drawn) here?
Answer: Its Activity is 100%.

Question: And the Activity [2]?
Answer: Its Activity is 69%.

Question: What about the Activity (Mus musculus [3]) of the same compound?
Answer: The Activity was “Active”.

Question: What about the Activity (Mus musculus [6]) of the same compound?
Answer: Its Activity is “inactive”.

Question: And the Activity [4]?
Answer: The Activity was 100%.

Question: And the logP [5]?
Answer: Its logP is 6.65.

Question: For `C=C(c1ccc2ccccc2c1)C1COC2(OO1)C1CC3CC(C1)CC2C3` (stereo not drawn), which Activity [1] is on record?
Answer: The Activity was 100%.

Question: What about the Activity [2] of the same compound?
Answer: Its Activity is 71%.

Question: And the Activity (Mus musculus [6])?
Answer: Its Activity is “inactive”.

Question: What about the Activity [4] of the same compound?
Answer: Its Activity is 100%.

Question: And the logP [5]?
Answer: The logP was 5.65.

Question: Which Activity [2] does the source give for `C=C(c1ccccc1)C1COC2(OO1)C1CC3CC(C1)CC2C3` (stereo not drawn) here?
Answer: Its Activity is 97%.

Question: What about the Activity (Mus musculus [3]) of the same compound?
Answer: The Activity was “inactive”.

Question: And the Activity (Mus musculus [6])?
Answer: The Activity was “inactive”.

Question: And the Activity [4]?
Answer: Its Activity is 99%.

Question: And the logP [5]?
Answer: Its logP is 4.65.

Question: What does the source list for `C=C(C1COC2(CCCCC2)OO1)C12CC3CC(CC(C3)C1)C2` (stereo not drawn)?
Answer: Activity (Mus musculus [3]): inactive; Activity (Mus musculus [6]): inactive; Activity [4]: 52%; logP [5]: 4.79

Question: For `C=C(C1COC2(CCCC2)OO1)C12CC3CC(CC(C3)C1)C2` (stereo not drawn), which Activity [2] is on record?
Answer: Its Activity is 38%.

Question: And the Activity (Mus musculus [3])?
Answer: The Activity was “inactive”.

Question: What about the Activity (Mus musculus [6]) of the same compound?
Answer: Its Activity is “inactive”.

Question: What about the Activity [4] of the same compound?
Answer: The Activity was 57%.

Question: What about the logP [5] of the same compound?
Answer: The logP was 4.38.

Question: Which results are given for `C=C(c1cccc2ccccc12)C1COC2(OO1)C1CC3CC(C1)CC2C3` (stereo not drawn)?
Answer: Activity [1]: 100%; Activity [2]: 87%; Activity (Mus musculus [3]): Active; Activity (Mus musculus [6]): inactive; Activity [4]: 100%; logP [5]: 5.65

Question: For `C=C(c1ccc2c(c1)Cc1ccccc1-2)C1COC2(OO1)C1CC3CC(C1)CC2C3` (stereo not drawn), which Activity [1] is on record?
Answer: The Activity was 100%.

Question: What about the Activity [2] of the same compound?
Answer: The Activity was 100%.

Question: And the Activity [7]?
Answer: The Activity was 100%.

Question: What about the Activity (Mus musculus [3]) of the same compound?
Answer: The Activity was “Active”.

Question: And the Activity (Mus musculus [8])?
Answer: The Activity was “Active”.

Question: And the Activity (Plasmodium cynomolgi [9])?
Answer: The Activity was “inactive”.

Question: What about the Activity (Plasmodium cynomolgi [10]) of the same compound?
Answer: The Activity was 100%.

Question: And the Activity (Plasmodium cynomolgi [11])?
Answer: The Activity was 100%.

Question: And the Activity [4]?
Answer: The Activity was 100%.

Question: And the logP [5]?
Answer: The logP was 6.39.

Question: Which Activity [1] does the source give for `C[C@H]1[C@H](OC(=O)CCC(=O)O)O[C@@H]2O[C@@]3(C)CC[C@H]4[C@H](C)CC[C@@H]1[C@@]24OO3` [ARTESUNATE] here?
Answer: The Activity was 100%.

Question: And the Activity [7]?
Answer: The Activity was 100%.

Question: And the Activity (Mus musculus [8])?
Answer: The Activity was “Active”.

Question: And the Activity (Mus musculus [12])?
Answer: Its Activity is “inactive”.

Question: And the logP [5]?
Answer: Its logP is 3.04.

Question: What does the source list for `C=C(c1ccc2c(ccc3ccccc32)c1)C1COC2(OO1)C1CC3CC(C1)CC2C3` (stereo not drawn)?
Answer: Activity [1]: 100%; Activity [2]: 100%; Activity [4]: 100%; logP [5]: 6.65

Question: Which Activity [1] does the source give for `CCO[C@H]1O[C@@H]2O[C@@]3(C)CC[C@H]4[C@H](C)CC[C@@H]([C@H]1C)[C@@]24OO3` [ARTEMOTIL] here?
Answer: The Activity was 100%.

Question: And the Activity [7]?
Answer: Its Activity is 100%.

Question: And the Activity (Mus musculus [8])?
Answer: Its Activity is “Active”.

From ChEMBL document CHEMBL1141403, “New adamantane-based spiro 1,2,4-trioxanes orally effective against rodent and simian malaria” (J Med Chem, 2007)
